Data set [1] addresses T1, urease from Canavalia ensiformis (Canavalia ensiformis, UniProt P07374).
T1 construct: purchased Sigma
Nature of the data set: Urease inhibition assay (indophenol method, cell-free). The format is biochemical. The conditions noted are these: for effect on urease activity: at concentrations of up to 100 µM. The protocol: A reaction mixture consisting of 25 µL of enzyme solution (urease from Canavalia ensiformis, Sigma, 1U final concentration) and 5 µL of test compounds dissolved in water (10–300.0 µM final concentration) was preincubated at 37 °C for 60 min in 96-well plates. Then, 55 µL of phosphate-buffered solution with […] of urea was added to each well and incubated at 37 °C for 10 min. The urease inhibitory activity was estimated by determining ammonia production using the indophenol method. Briefly, 45 µL of phenol reagent (1% w/v phenol and 0.005% w/v sodium nitroprusside) and 70 µL of alkali reagent (0.5% w/v NaOH and 0.1% active chloride NaClO) were added to each well. The absorbance was measured after 50 min at 630 nm using a MultiskanFS microplate reader (Thermo Scientific Inc., Beverly, MA, USA). All reactions were performed in triplicate in a final volume of 200 µL. The pH was maintained at 7.3–7.5 in all assays. DMSO 5% was used as a positive control.

Data set [2] deals with normal rat cardiomyocyte H9c2 cells. As to the kind of experiment: Cell viability assay (MTT), cytotoxic activity. The conditions noted are these: for decrease of H9c2 cell viability: 100 µM. The format is cell-based. On the procedure: (§1) The HepG2 and H9c2 cells were cultured in DMEM medium (Biolot, St. Petersburg, Russia) containing 10% fetal bovine serum (Biolot, St. Petersburg, Russia) and 1% penicillin/streptomycin (Biolot, St. Petersburg, Russia) at 37 °C in a humidified atmosphere with 5% (v/v) CO2.
(§2) The HepG2 and H9c2 cells were seeded at concentrations of 5× 10^3 and 3×10^3 cell/well, respectively, and the experiments were started after 24 h. The compounds at concentrations up to 100 µM were added into the wells for 24 h, and the viability of the cells was measured by an MTT (3-(4,5-dimethylthiazol-2-yl)-2,5-diphenyltetrazolium bromide) assay, which was performed according to the manufacturer’s instructions (Sigma-Aldrich, Munich, Germany). All compounds were dissolved with DMSO so that the final concentration of DMSO in the cell culture was not more than 1%. Moreover, DMSO was used as a control. The absorbance of the resulting solution was measured at 570 nm with a microplate reader MultiscanFC (ThermoLabsystems Inc., Beverly, MA, USA). The results are presented as a percent of the control data and calculated IC50.

A short description of data set [3]: Cell viability assay (MTT), cytotoxic activity. Type of data set: cell-based, human. The conditions noted are these: 24 h, MTT; for viability at 24 h, 10 µM / viability at 24 h, 100 µM: percent of control. The protocol: as §1, §2
Data set [4] concerns Staphylococcus aureus ATCC 21027. As to the kind of experiment: Antimicrobial activity, inhibition of microbial growth (OD620). Type of data set: cell-based. The conditions noted are these: for inhibition at 100 µM: Staphylococcus aureus, ATCC21027, compounds tested at 100 µM, read-out: Inhibition of Microbial Growth, S. aureus. The protocol:
(§3) The yeast-like fungi of Candida albicans KMM 455 and bacterial strains Staphylococcus aureus ATCC 21027 and Escherichia coli VKPM (B-7935) (Collection of Marine Microorganisms PIBOC FEB RAS) were cultured on solid-medium Mueller Hinton broth with agar (16.0 g/L) in a Petri dish at 37 °C for 24 h.
(§4) The assays were performed in 96-well microplates in appropriate Mueller Hinton broth. Each well contained 90 µL of bacterial or of a yeast-like fungi suspension (10^9 CFU/mL). Then, 10 µL of a compound diluted at concentrations ranging from 1.5 to 100.0 µM using a 2-fold dilution was added (DMSO concentration < 1%). Culture plates were incubated overnight at 37 °C, and the OD620 was measured using a Multiskan FS spectrophotometer (Thermo Scientific Inc., Beverly, MA, USA). The antibiotic gentamicin and antifungal agent nitrofungin were used as positive controls at 1 mg/mL; 1% DMSO in PBS served as a negative control.

The subject of data set [5] is Escherichia coli VKPM (B-7935). The description is as above. The conditions noted are these: compounds tested at 100 µM; for inhibition at 100 µM: Escherichia coli, read-out: Inhibition of Microbial Growth, E. coli. Type of data set: cell-based. The protocol: as §3, §4
A further data set concerns Candida albicans KMM 455. The data set is described as above. The format is cell-based. The conditions noted are these: Candida albicans, KMM455; compounds tested at 100 µM; read-out: Inhibition of Microbial Growth, C. albicans. The protocol: as §3, §4
Data set [6] relates to S. aureus-infected H9c2 cardiomyocytes. Nature of the data set: Staphylococcus aureus-induced infection of H9c2 cardiomyocytes (in vitro model of infectious myocarditis, MTT). Type of data set: cell-based, rat. The conditions noted are these: 1 and 10 µM. On the procedure: The H9c2 cells were seeded at concentrations of 3 × 10^3 cell/well. After 24 h, the cell culture media was changed with an S. aureus bacterial suspension (10^2 CFU/mL) prepared in full DMEM culture media. The investigated compounds at concentrations of 1 and 10 µM were added after 1 h and the cells were incubated for 48 h. The S. aureus suspension with compounds at the same concentrations was used as a control. MTT reagent was added to all wells and formazan production was detected with the microplate reader MultiscanFC (ThermoLabsystems Inc., Beverly, MA, USA). The viability of S. aureus-infected cells was calculated as:Viability, relative units = (OD cells+Sa +comp − OD Sa+comp)/(OD cells+Sa − OD Sa)

The subject of data set [7] is human hepatocarcinoma HepG2 cells. Nature of the data set: Cell viability assay (MTT), cytotoxic activity. The format is cell-based. On the procedure:
as §1, §2

The mark [8] stands for this setting: human, HepG2 cells (human hepatocarcinoma), read-out: HepG2 IC50 (cytotoxic effect).
The mark [9] stands for this setting: human, HepG2 hepatocarcinoma cells.
Setting [10] is: rat, H9c2 cells (normal rat cardiomyocytes), read-out: H9c2 IC50 (cytotoxic effect).

Entries after “also recorded” stand apart in the source; their conditions may differ. Read-outs that look alike come from different tables or passages of the source.

The text below walks through data of PMC10706121, “Bioactive Polyketides from the Natural Complex of the Sea Urchin-Associated Fungi Penicillium sajarovii KMM 4718 and Aspergillus protuberus KMM 4747” (International Journal of Molecular Sciences, 2023).

T1 sequence (P07374 whole entry, looked up): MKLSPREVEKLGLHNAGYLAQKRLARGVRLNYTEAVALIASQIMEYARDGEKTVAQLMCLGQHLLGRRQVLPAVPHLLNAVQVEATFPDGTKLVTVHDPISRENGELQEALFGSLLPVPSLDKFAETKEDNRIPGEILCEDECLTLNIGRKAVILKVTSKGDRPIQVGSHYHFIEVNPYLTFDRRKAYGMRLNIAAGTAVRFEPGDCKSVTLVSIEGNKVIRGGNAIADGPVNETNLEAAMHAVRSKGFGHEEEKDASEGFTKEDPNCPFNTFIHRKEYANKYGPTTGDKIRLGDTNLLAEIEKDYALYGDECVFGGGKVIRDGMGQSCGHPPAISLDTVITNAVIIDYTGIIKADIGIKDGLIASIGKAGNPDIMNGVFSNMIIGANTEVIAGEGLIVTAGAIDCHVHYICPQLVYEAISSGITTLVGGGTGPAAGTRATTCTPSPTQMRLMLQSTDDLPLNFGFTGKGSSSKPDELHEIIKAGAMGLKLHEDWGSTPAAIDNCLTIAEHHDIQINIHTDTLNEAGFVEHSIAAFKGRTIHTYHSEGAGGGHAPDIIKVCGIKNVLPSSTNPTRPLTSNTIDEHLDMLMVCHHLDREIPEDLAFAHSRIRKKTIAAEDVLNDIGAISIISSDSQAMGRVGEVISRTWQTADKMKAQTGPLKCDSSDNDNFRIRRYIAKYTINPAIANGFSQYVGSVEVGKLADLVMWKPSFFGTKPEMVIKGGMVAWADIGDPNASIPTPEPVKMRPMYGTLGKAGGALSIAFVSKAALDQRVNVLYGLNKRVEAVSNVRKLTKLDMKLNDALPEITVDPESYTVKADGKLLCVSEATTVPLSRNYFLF

As to `COC1=CC(=O)c2c(O)cc(O)cc2[C@@]1(C)O` [Compound 1, sajaroketide A], the concentration for half-maximal inhibition (IC50) in data set [1] is > 100 µM. For the same compound, the “effect on urease activity” value in data set [1] is “no effect; also recorded: very poor”. Moreover, the “decrease of H9c2 cell viability” value in data set [2] is given as 34.6%. In addition, the IC50 at 24 h in data set [3] (setting [8]) and in data set [3] (setting [10]) was > 100 µM throughout. The viability at 24 h, 10 µM in data set [3] (setting [9]) was 108 ± 3.2%; in data set [3] (rat, H9c2 cardiomyocyte cells) it was 83.6 ± 4.4%. The viability at 24 h, 100 µM turned out to be 107 ± 3.9% in data set [3] (setting [9]) and 65.4 ± 4.8% in data set [3] (rat, H9c2 cardiomyocyte cells). Besides, the inhibition at 100 µM in data set [4] was 35.1 ± 0.9%; in data set [5], 25.4 ± 1%; with Candida albicans KMM 455, < 10%.

On to `COC1=CC(=O)c2c(O)cc(OC)cc2[C@@]1(C)O` [Compound 2, sajaroketide B], for which the “effect on the viability of S. aureus-infected H9c2 cardiomyocytes” value in data set [6] was “did not show any statistical effect”. The same compound displayed an IC50 in data set [1] of 98.5 ± 0.8 µM. The “decrease of H9c2 cell viability” value in data set [2] is recorded as 21.0%. The 50% inhibitory concentration (IC50) at 24 h in data set [3] (setting [8]) and in data set [3] (setting [10]) was > 100 µM throughout. In addition, the viability at 24 h, 10 µM was found to be 87.3 ± 4.1% in data set [3] (setting [9]) and 96 ± 1.9% in data set [3] (rat, H9c2 cardiomyocyte cells). In addition, the viability at 24 h, 100 µM in data set [3] (setting [9]) was determined as 76.9 ± 2.1%; in data set [3] (rat, H9c2 cardiomyocyte cells), 79 ± 3.4%. The inhibition at 100 µM (in data set [4]; in data set [5]; with Candida albicans KMM 455) was < 10% throughout. Further, the “Inhibition of Microbial Growth, S. aureus” value in data set [4] (compounds tested at 100 µM) was “inactive”. Further, the “Inhibition of Microbial Growth, E. coli” value in data set [5] was “inactive”.

As to `Cc1cc(O)cc2oc(C[C@H](C)O)cc(=O)c12` [Compound 3, (2′S)-7-hydroxy-2-(2′-hydroxypropyl)-5-methylchromone], the IC50 in data set [1] was > 100 µM. Further, the “effect on urease activity” value in data set [1] is “no effect; also recorded: did not show any effect”. In data set [2], the “decrease of H9c2 cell viability” value was 25.7%. Further, the IC50 at 24 h in data set [3] (setting [8]) and in data set [3] (setting [10]) was > 100 µM throughout. The viability at 24 h, 10 µM in data set [3] (setting [9]) was determined as 91.7 ± 1.5%; in data set [3] (rat, H9c2 cardiomyocyte cells), 96.4 ± 2.1%. For the same compound, the viability at 24 h, 100 µM in data set [3] (setting [9]) came out at 101 ± 3.9%; in data set [3] (rat, H9c2 cardiomyocyte cells), 74.3 ± 3.2%. Moreover, the results for the inhibition at 100 µM (in data set [4]; in data set [5]; with Candida albicans KMM 455) were 17.7 ± 0.3%, < 10% and < 10%, respectively.

Regarding `Cc1cc(O)cc2oc3cc(O)cc(O)c3c(=O)c12` [Compound 5, norlichexanthone], the IC50 in data set [1] was 15.3 ± 2.1 µM; in data set [2] (24 h, MTT, read-out: H9c2 IC50 (cytotoxic effect)), 97.4 ± 2.2 µM; in data set [7] (24 h, MTT, read-out: HepG2 IC50 (cytotoxic effect)), > 100 µM. Besides, in data set [2], the “decrease of H9c2 cell viability” value amounted to 51.0%. The half-maximal inhibitory concentration (IC50) at 24 h in data set [3] (setting [8]) and in data set [3] (setting [10]) was ~100 µM each time. Moreover, the viability at 24 h, 10 µM came out at 88 ± 4.9% in data set [3] (setting [9]) and 86.3 ± 6.3% in data set [3] (rat, H9c2 cardiomyocyte cells). Further, the viability at 24 h, 100 µM in data set [3] (setting [9]) was 52.6 ± 3%; in data set [3] (rat, H9c2 cardiomyocyte cells), 49 ± 1.6%. Besides, the “decrease of HepG2 cell viability” value in data set [7] (100 µM) was 47.4%. The values for the inhibition at 100 µM (in data set [4]; in data set [5]; in the data set on Candida albicans KMM 455) were 20.8 ± 6.5%, 27.9 ± 3.3% and < 10%, respectively.
